# Assay results reported in US12195435B2, “5-methylchromone and the preparation method and application thereof” (HAINAN MEDICAL UNIVERSITY, priority 2020, dated 2025).
# Biological target: tyrosinase
# Assay: Determination of the activity of compounds inhibiting tyrosinase (L-tyrosine substrate, absorbance at 475 nm)
# Assay type: biochemical
# Conditions: for IC50: L-tyrosine 0.1 mg/mL, tyrosinase 48 U/mL, pH 6.8, 37° C. 30 min, n = 3, read-out: IC50 ± SEM (tyrosinase inhibition); for tyrosinase inhibitory activity (in words, compared with aloesin): comparison with positive control aloesin
# Procedure: Method for determining the activity of inhibiting tyrosinase: Firstly, adding the sample: 40 μL (10% DMSO, setting different concentrations (0, 25, 50, 100, 200 μg/mL)) into a 96-well plate (aloesin is the positive control), then adding L-tyrosine: 40 μL (0.1 mg/mL, dissolving in 0.1M potassium phosphate buffer solution, pH=6.8), tyrosinase: 40 μL (48 U/mL, dissolving in 0.1M potassium phosphate buffer solution, pH=6.8), and finally diluting the volume to 200 μL with potassium phosphate buffer solution, and detecting the absorbance at 475 nm on 0 min; after incubating at 37° C. for 30 min, measuring the absorbance.
IC50,SMILES,"tyrosinase inhibitory activity (in words, compared with aloesin)"
600 ± 30 µM,CCCc1cc(=O)c2c(C)cc(OCC)cc2o1 [Compound 1-6],higher than the tyrosinase inhibitory activity of aloesin
2400 ± 100 µM,CCCc1cc(=O)c2c(C)cc(O)cc2o1 [Compound 1-3],–
6200 ± 70 µM,CCc1cc(=O)c2c(C)cc(O)cc2o1 [Compound 1-2],–
9300 ± 90 µM,Cc1cc(=O)c2c(C)cc(O)cc2o1 [Compound 1-1],–
2700 ± 40 µM,"CC(=O)Cc1cc(=O)c2c(C)cc(O)c([C@@H]3O[C@H](CO)[C@@H](O)[C@H](O)[C@H]3O)c2o1 [Aloesin, aloesin, reference compound]",–
200 ± 70 µM,CCCc1cc(=O)c2c(C)cc(OC)cc2o1 [Compound 1-5],higher than the tyrosinase inhibitory activity of aloesin
5400 ± 30 µM,Cc1cc(O)cc2oc(C(C)(C)C)cc(=O)c12 [Compound 1-4],–
